Data on eleven molecules can be found in patent publication US11485731B2, “Compounds and methods useful in the treatment of a PRMT5-mediated disorder” (ARGONAUT THERAPEUTICS LIMITED, priority 2017, dated 2022).

The structures appear in SMILES notation.

The target in the assay is human PRMT5/MEP50 (Homo sapiens (Human), UniProt O14744). The assay can be described thus: PRMT5 chemiluminescent assay. As to conditions: human PRMT5/MEP50 expressed in HEK293 cells; biotinylated histone peptides; Histone H4 monomethyl R3 antibody; chemiluminescent readout. The assay is classed as biochemical. The method, boiled down: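 HEK293-expressed PRMT5/MEP50, diluted to 5 ng/µL in assay buffer, reacted 60 min with rotation on plate-bound biotinylated histone peptides. Product was detected with anti-histone H4 R3 monomethyl antibody (60 min), then HRP secondary (30 min) and chemiluminescent substrate. IC50 values came from the chemiluminescence signal.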
human PRMT5/MEP50, sequence (O14744 whole entry): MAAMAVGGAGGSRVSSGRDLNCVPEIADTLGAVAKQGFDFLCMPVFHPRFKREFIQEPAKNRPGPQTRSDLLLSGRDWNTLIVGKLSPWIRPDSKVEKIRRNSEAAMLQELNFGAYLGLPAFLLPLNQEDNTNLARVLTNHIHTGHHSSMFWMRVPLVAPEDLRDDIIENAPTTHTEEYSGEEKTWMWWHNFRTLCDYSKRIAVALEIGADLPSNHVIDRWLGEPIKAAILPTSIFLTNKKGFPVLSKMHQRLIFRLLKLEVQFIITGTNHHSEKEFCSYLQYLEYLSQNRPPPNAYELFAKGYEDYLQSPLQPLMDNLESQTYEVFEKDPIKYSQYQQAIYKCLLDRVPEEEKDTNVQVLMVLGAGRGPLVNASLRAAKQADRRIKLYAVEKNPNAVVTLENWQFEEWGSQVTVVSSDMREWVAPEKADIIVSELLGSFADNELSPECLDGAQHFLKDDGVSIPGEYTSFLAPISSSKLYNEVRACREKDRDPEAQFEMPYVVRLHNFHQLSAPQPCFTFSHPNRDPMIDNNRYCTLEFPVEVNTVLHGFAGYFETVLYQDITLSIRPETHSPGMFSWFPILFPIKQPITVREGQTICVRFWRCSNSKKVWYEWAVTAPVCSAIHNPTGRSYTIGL
human PRMT5/MEP50, sequence (Q9BQA1 whole entry partner): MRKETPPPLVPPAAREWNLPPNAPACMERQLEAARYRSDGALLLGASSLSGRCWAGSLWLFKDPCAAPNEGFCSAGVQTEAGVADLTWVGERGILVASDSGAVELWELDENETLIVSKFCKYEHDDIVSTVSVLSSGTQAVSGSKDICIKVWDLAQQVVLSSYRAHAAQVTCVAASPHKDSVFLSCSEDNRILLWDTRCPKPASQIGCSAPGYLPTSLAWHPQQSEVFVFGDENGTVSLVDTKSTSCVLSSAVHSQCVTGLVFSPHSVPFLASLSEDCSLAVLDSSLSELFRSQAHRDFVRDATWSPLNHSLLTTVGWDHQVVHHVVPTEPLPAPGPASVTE
Regarding `O=C(NCC(O)CN1CCc2ccsc2C1)N1CCCC(c2ccccc2)C1` (centres unmarked) [Example 1AD, N-(3-(4,7-dihydrothieno[2,3-c]pyridin-6(5H)-yl)-2-hydroxypropyl)-3-phenylpiperidine-1-carboxamide], half-maximal inhibition (IC50) was put at 652 nM. The same measure for `CC1(O)CCN(C(=O)NC[C@H](O)CN2CCc3ccccc3C2)CC1` [Example 1BG, (S)-N-(3-(3,4-dihydroisoquinolin-2(1H)-yl)-2-hydroxypropyl)-4-hydroxy-4-methylpiperidine-1-carboxamide]: 3940 nM; for `O=C(NC[C@H](O)CN1CCc2ccccc2C1)N1CCC(C(=O)N2CCOCC2)CC1` [Example 1AY, (S)-N-(3-(3,4-dihydroisoquinolin-2(1H)-yl)-2-hydroxypropyl)-4-(morpholine-4-carbonyl)piperidine-1-carboxamide]: 311 nM. The result for `CN(C)C(=O)C1CCN(C(=O)OC[C@H](O)CN2CCc3ccccc3C2)CC1` [Example 4O, (R)-3-(3,4-dihydroisoquinolin-2(1H)-yl)-2-hydroxypropyl 4-(dimethylcarbamoyl)piperidine-1-carboxylate] reads 2710 nM; that for `O=C(OCC(O)CN1CCc2ccccc2C1)N1CCCC1` (centres unmarked) [Example 3C, 2-hydroxy-3-(1,2,3,4-tetrahydroisoquinolin-2-yl)propyl pyrrolidine-1-carboxylate], 9560 nM. Consider `O=C(NC[C@H](O)CN1CCc2ccccc2C1)N1CCC(F)(F)CC1` [Example 1BF, (S)-N-(3-(3,4-dihydroisoquinolin-2(1H)-yl)-2-hydroxypropyl)-4,4-difluoropiperidine-1-carboxamide], for which the IC50 worked out at 5600 nM.

As for `CN(C)C(=O)C1CCN(C(=O)NC[C@H](O)CN2CCc3ccccc3C2)CC1` [Example 1AX, (S)-N^1-(3-(3,4-dihydroisoquinolin-2(1H)-yl)-2-hydroxypropyl)-N^4,N^4-dimethylpiperidine-1,4-dicarboxamide], the IC50 is 588 nM. The same measure for `O=C(OCC(O)CN1CCc2ccccc2C1)N1CCCC(Nc2ccncc2)C1` (centres unmarked) [Example 4C, 3-(3,4-dihydroisoquinolin-2(1H)-yl)-2-hydroxypropyl 3-(pyridin-4-ylamino)piperidine-1-carboxylate]: 25 nM; for `O=C(OCC(O)CN1CCc2ccccc2C1)N1CCC(c2ccccc2)C1` (centres unmarked) [Example 3D, 2-hydroxy-3-(1,2,3,4-tetrahydroisoquinolin-2-yl)propyl 3-phenylpyrrolidine-1-carboxylate]: 15 nM; for `O=C(OC[C@H](O)CN1CCc2ccccc2C1)N1CC[C@@H](c2ccccc2)C1` [Example 4K, (R)-3-(3,4-dihydroisoquinolin-2(1H)-yl)-2-hydroxypropyl (S)-3-phenylpyrrolidine-1-carboxylate]: 20 nM. The result for `CS(=O)(=O)N1CCCN(C(=O)NC[C@@H](O)CN2CCc3ccccc3C2)CC1` [Example 1BD, (R)-N-(3-(3,4-dihydroisoquinolin-2(1H)-yl)-2-hydroxypropyl)-4-(methylsulfonyl)-1,4-diazepane-1-carboxamide] reads 58200 nM.

In general, IC50 refers to the concentration that inhibits the measured activity by half. Lower therefore signals greater potency in that assay.
